The values that follow come from the NIST ThermoML archive (doi:10.1016/j.jct.2010.11.005).

The conditions of data set [1]: Crystal, Calculated from knudsen effusion weight loss.
A short description of data set [2]: molar enthalpy of vaporization or sublimation. As to conditions: 298.15 K; Crystal; Calvet microcalorimetry.

Where “and” joins values, the source holds several entries; their conditions need not be identical. Equal values may be shown once. Numbers after ± are expanded uncertainties.

As to `O=C(c1ccccc1)c1cccc([N+](=O)[O-])c1` [3-nitrobenzophenone], the “vapor or sublimation pressure” value in data set [1] (349.27 K) is 0.00016 ± 8e-06 kPa and 0.000161 ± 8e-06 kPa and 0.000162 ± 8e-06 kPa; in data set [1] (351.21 K) it was 0.000194 ± 1e-05 kPa and 0.000198 ± 1e-05 kPa; in data set [1] (353.12 K), 0.000248 ± 1.2e-05 kPa and 0.000245 ± 1.2e-05 kPa and 0.000244 ± 1.2e-05 kPa; in data set [1] (355.13 K), 0.000315 ± 1.6e-05 kPa and 0.000308 ± 1.5e-05 kPa; in data set [1] (357.21 K) it was 0.000399 ± 2e-05 kPa and 0.000396 ± 2e-05 kPa and 0.000395 ± 2e-05 kPa; in data set [1] (359.26 K), 0.000506 ± 2.5e-05 kPa and 0.000508 ± 2.5e-05 kPa. The “vapor or sublimation pressure” value in data set [1] (361.26 K) was 0.000613 ± 3.1e-05 kPa and 0.00061 ± 3.1e-05 kPa and 0.000614 ± 3.1e-05 kPa; in data set [1] (363.2 K), 0.000758 ± 3.8e-05 kPa and 0.000749 ± 3.8e-05 kPa and 0.000771 ± 3.9e-05 kPa; in data set [1] (365.12 K), 0.000936 ± 4.7e-05 kPa and 0.000935 ± 4.7e-05 kPa and 0.000946 ± 4.7e-05 kPa. Besides, the molar enthalpy in data set [2] amounted to 29.5 ± 1.15 kcal/mol.
With `O=C(c1ccccc1)c1ccc([N+](=O)[O-])cc1` [4-nitrobenzophenone], the “vapor or sublimation pressure” value in data set [1] (359.27 K) was 0.00018 ± 9e-06 kPa and 0.000177 ± 9e-06 kPa and 0.000174 ± 9e-06 kPa; in data set [1] (361.19 K) it was 0.000215 ± 1.1e-05 kPa and 0.00021 ± 1.1e-05 kPa and 0.000214 ± 1.1e-05 kPa; in data set [1] (363.12 K) it was 0.000269 ± 1.3e-05 kPa and 0.000265 ± 1.3e-05 kPa and 0.000259 ± 1.3e-05 kPa; in data set [1] (365.29 K) it was 0.000344 ± 1.7e-05 kPa and 0.000342 ± 1.7e-05 kPa; in data set [1] (367.2 K), 0.000422 ± 2.1e-05 kPa and 0.00042 ± 2.1e-05 kPa and 0.000427 ± 2.1e-05 kPa; in data set [1] (369.12 K), 0.000512 ± 2.6e-05 kPa and 0.000509 ± 2.5e-05 kPa and 0.000523 ± 2.6e-05 kPa. The “vapor or sublimation pressure” value is 0.000652 ± 3.3e-05 kPa and 0.000645 ± 3.2e-05 kPa and 0.000657 ± 3.3e-05 kPa in data set [1] (371.29 K); 0.000767 ± 3.8e-05 kPa and 0.000769 ± 3.8e-05 kPa and 0.000791 ± 4e-05 kPa in data set [1] (373.18 K); 0.000955 ± 4.8e-05 kPa and 0.000941 ± 4.7e-05 kPa and 0.00096 ± 4.8e-05 kPa in data set [1] (375.1 K). Further, in data set [2], the molar enthalpy came to 29.2 ± 1.29 kcal/mol.
Turning to `O=C(c1cccc([N+](=O)[O-])c1)c1cccc([N+](=O)[O-])c1` [3,3'-dinitrobenzophenone], in data set [2], the molar enthalpy is 35.2 ± 1.86 kcal/mol.

The vapor or sublimation pressure is the equilibrium pressure above the liquid or solid.
